Read-outs that look alike come from different tables or passages of the source.
What was measured:
[1] = test system: A/California/07/2009 (H1N1); assay: Antiviral activity (drug efficacy evaluation by concentration) against A/California/07/2009 (H1N1); type: cell-based, A type influenza virus
MDCK cells = assay: Cytotoxicity (CC50) in the influenza infection assay
A/Perth/16/2009 (H3N2) = assay: Antiviral activity (drug efficacy evaluation by concentration) against A/Perth/16/2009 (H3N2); type: cell-based, A type influenza virus
B/Florida/04/2006 = assay: Antiviral activity (drug efficacy evaluation by concentration) against B/Florida/04/2006; type: cell-based, B type influenza virus
[2] = A/California/07/2009 (H1N1), read-out: EC50 A/California/07/2009 (H1N1)
[3] = read-out: CC50 A/California/07/2009 (H1N1), cytotoxicity in the A/California/07/2009 (H1N1) assay
[4] = read-out: CC50 A/Perth/16/2009 (H3N2), cytotoxicity in the A/Perth/16/2009 (H3N2) assay
[5] = read-out: CC50 B/Florida/04/2006, cytotoxicity in the B/Florida/04/2006 assay
[6] = A/Perth/16/2009 (H3N2), read-out: EC50 A/Perth/16/2009 (H3N2)
[7] = read-out: EC50 B/Florida/04/2006, B/Florida/04/2006
[8] = Influenza A virus, H1N1, read-out: EC50
[9] = CC50, third EC50/CC50 column pair (c7), beside the EC50 of c6
[10] = Influenza A virus, H3N2, read-out: EC50

Row | SMILES | EC50 [1, 2] [µM] | CC50 (MDCK cells; [3]) [µM] | CC50 (MDCK cells; [4]) [µM] | CC50 (MDCK cells; [5]) [µM] | EC50 (A/Perth/16/2009 (H3N2); [6]) [µM] | EC50 (B/Florida/04/2006; [7]) [µM] | EC50 [1, 8] [µM] | CC50 (in vitro; CC50, beside the EC50 of c2) [µM] | CC50 (in vitro; CC50, beside the EC50 of c4) [µM] | CC50 (in vitro; [9]) [µM] | melting point [°C] | EC50 (A/Perth/16/2009 (H3N2); [10]) [µM] | EC50 (B/Florida/04/2006) [µM]
1 | Cc1nn(Cc2nnc(SCc3ccccc3-c3ccncc3)o2)c(C)c1Br [Compound 15, 2-((4-bromo-3,5-dimethyl-1H-pyrazol-1-yl)methyl)-5-((2-(pyridin-4-yl)benzyl)thio)-1,3,4-oxadiazole] | 8.9 | > 50 | > 50 | > 50 | 11.6 | 8.18 | – | – | – | – | – | – | –
2 | Cc1nn(Cc2nnc(SCc3ccccc3-c3ccncc3)o2)c(C)c1Br [Compound 20, 2-((4-bromo-3,5-dimethyl-1H-pyrazol-1-yl)methyl)-5-((2-(pyridin-4-yl)benzyl)thio)-1,3,4-oxadiazole] | 0.7 | 8.3 | 10.2 | 10.2 | 0.7 | 0.66 | – | – | – | – | – | – | –
3 | Fc1ccc(/C=C/c2nnc(Cc3cccc4ccccc34)o2)c(Cl)c1 [Compound 185, (E)-2-(2-chloro-4-fluorostyryl)-5-(naphthalen-1-ylmethyl)-1,3,4-oxadiazole] | – | – | – | – | – | – | > 50 | > 50 | > 50 | > 50 | 152.7 | > 50 | > 50
4 | Fc1ccccc1/C=C/c1nnc(Cc2cccc(Cl)c2)o1 [Compound 187, 2-(3-chlorobenzyl)-5-(2-fluorostyryl)-1,3,4-oxadiazole] | – | – | – | – | – | – | 1.89 | > 50 | > 50 | > 50 | 117.3 | 1.51 | 1.7
5 | Fc1ccc(/C=C/c2nnc(Cc3cccc(Br)c3)o2)cc1 [Compound 188, 2-(3-bromobenzyl)-5-(4-fluorostyryl)-1,3,4-oxadiazole] | – | – | – | – | – | – | 9.58 | > 50 | > 50 | > 50 | 95.3 | 11.6 | 12.2
6 | Fc1ccc(/C=C/c2nnc(Cc3cccc(Br)c3)o2)cc1F [Compound 191, 2-(3-bromobenzyl)-5-(3,4-difluorostyryl)-1,3,4-oxadiazole] | – | – | – | – | – | – | 8.24 | > 50 | > 50 | > 50 | 112.8 | 4.99 | 13.2
7 | Clc1ccc(/C=C/c2nnc(Cc3cccc(Br)c3)o2)c(Cl)c1 [Compound 192, 2-(3-bromobenzyl)-5-(2,4-dichlorostyryl)-1,3,4-oxadiazole] | – | – | – | – | – | – | 4.66 | > 50 | > 50 | > 50 | 142.4 | 2.6 | 5.49
8 | Fc1ccc(Cl)c(/C=C/c2nnc(Cc3cccc(Br)c3)o2)c1 [Compound 193, 2-(3-bromobenzyl)-5-(2-chloro-5-fluorostyryl)-1,3,4-oxadiazole] | – | – | – | – | – | – | > 50 | > 50 | > 50 | > 50 | 97.1 | > 50 | > 50
9 | Fc1cccc(/C=C/c2nnc(Cc3cccc(Br)c3)o2)c1Cl [Compound 194, 2-(3-bromobenzyl)-5-(2-chloro-3-fluorostyryl)-1,3,4-oxadiazole] | – | – | – | – | – | – | 1.31 | 49.9 | > 50 | > 50 | 140.2 | 1.43 | 1.53
10 | Brc1ccc(Cc2nnc(/C=C/c3cccc4ccccc34)o2)cc1 [Compound 197, 2-(4-bromobenzyl)-5-(2-(naphthalen-1-yl)vinyl)-1,3,4-oxadiazole] | – | – | – | – | – | – | 26.9 | > 50 | > 50 | > 50 | 116 | 46.1 | 44.1
11 | Cc1cc(C(F)(F)F)ccc1/C=C/c1nnc(Cc2cccc(Br)c2)o1 [Compound 198, 2-(3-bromobenzyl)-5-(2-methyl-4-(trifluoromethyl)styryl)-1,3,4-oxadiazole] | – | – | – | – | – | – | 35.7 | > 50 | > 50 | > 50 | 116 | > 50 | 47.9
12 | FC(F)(F)c1ccc(Cl)c(/C=C/c2nnc(Cc3cccc(Br)c3)o2)c1 [Compound 199, 2-(3-bromobenzyl)-5-(2-chloro-5-(trifluoromethyl)styryl)-1,3,4-oxadiazole] | – | – | – | – | – | – | 8.55 | > 50 | > 50 | > 50 | 106.9 | 6.3 | 9.89
13 | Cc1ccc(/C=C/c2nnc(Cc3cccc(Br)c3)o2)c(C)c1 [Compound 200, 2-(3-bromobenzyl)-5-(2,4-dimethylstyryl)-1,3,4-oxadiazole] | – | – | – | – | – | – | 11.7 | > 50 | > 50 | > 50 | 74.2 | 11.9 | 10.2
14 | Oc1cccc(Cc2nnc(/C=C/c3ccc(F)cc3Cl)o2)c1 [Compound 201, (E)-3-((5-(2-chloro-4-fluorostyryl)-1,3,4-oxadiazol-2-yl)methyl)phenol] | – | – | – | – | – | – | 3.25 | > 50 | > 50 | > 50 | 152.7 | 3.05 | 3.7
15 | Oc1ccccc1/C=C/c1nnc(Cc2ccc(Br)cc2)o1 [Compound 209, 2-(2-(5-(4-bromobenzyl)-1,3,4-oxadiazol-2-yl)vinyl)phenol] | – | – | – | – | – | – | 46.8 | > 50 | > 50 | > 50 | 168.3 | 28.6 | > 50
